Where two headings read alike, the source gives them in different places. Numbered stars: 1 amine (or outer) side, 2 acyl side, 3 side chain; on linkers, the order of the positions; unused ones are H or OH. Square brackets hold non-standard residues; d marks the D form. Peptide text beside a SMILES is read from it. * marks the point of attachment. X3 = CC(=O)N[C@H]1[C@H](O[C@H]2[C@H](O)[C@@H](O)[C@H](O[C@H]3[C@@H](O)[C@@H](CO)O[C@@H](O[C@H]4[C@H](O)[C@@H](O)[C@H](O[C@H]5[C@@H](O)[C@@H](CO)O[C@@H](O[C@H]6[C@H](O)[C@@H](O)[C@H](O[C@H]7[C@@H](O)[C@@H](CO)O[C@@H](O[C@H]8[C@H](O)[C@@H](O)[C@H](O[C@H]9[C@@H](O)[C@@H](CO)O[C@@H](O[C@H]%10[C@@H](O)[C@@H](CO)O[C@@H](O[C@@H]%11CO[C@@H](OC[C@H](N[*:1])C(=O)[*:2])[C@H](O)[C@H]%11O)[C@@H]%10O)[C@@H]9O)O[C@@H]8C(=O)O)[C@@H]7NC(C)=O)O[C@@H]6C(=O)O)[C@@H]5NC(C)=O)O[C@@H]4C(=O)O)[C@@H]3NC(C)=O)O[C@@H]2C(=O)O)O[C@H](CO)[C@H](O)[C@@H]1O[C@@H]1O[C@H](C(=O)O)[C@@H](O)[C@H](O)[C@H]1O; X2 = CC(=O)N[C@H]1[C@H](O[C@H]2[C@H](O)[C@@H](O)[C@H](O[C@H]3[C@@H](O)[C@@H](CO)O[C@@H](O[C@H]4[C@@H](O)[C@@H](CO)O[C@@H](O[C@@H]5CO[C@@H](OC[C@H](N[*:1])C(=O)[*:2])[C@H](O)[C@H]5O)[C@@H]4O)[C@@H]3O)O[C@@H]2C(=O)O)O[C@H](CO)[C@H](OS(=O)(=O)O)[C@@H]1O[C@@H]1O[C@H](C(=O)O)[C@@H](O[C@@H]2O[C@H](CO)[C@H](O)[C@H](O[C@@H]3O[C@H](C(=O)O)[C@@H](O)[C@H](O)[C@H]3O)[C@H]2NC(C)=O)[C@H](O)[C@H]1O; X4 = O=C(O)[C@H]1O[C@@H](O[C@H]2[C@@H](O)[C@@H](CO)O[C@@H](O[C@H]3[C@@H](O)[C@@H](CO)O[C@@H](O[C@@H]4CO[C@@H](*)[C@H](O)[C@H]4O)[C@@H]3O)[C@@H]2O)[C@H](O)[C@@H](O)[C@@H]1O
Target: T1, Human Neutrophil Cathepsin G (Homo sapiens, UniProt P08311)
T1 construct: Human Neutrophil Cathepsin G was purchased from Athens; purchased Athens Research & Technology, Inc. (Athens, Georgia)
T1 sequence (P08311 21-243 limits assumed): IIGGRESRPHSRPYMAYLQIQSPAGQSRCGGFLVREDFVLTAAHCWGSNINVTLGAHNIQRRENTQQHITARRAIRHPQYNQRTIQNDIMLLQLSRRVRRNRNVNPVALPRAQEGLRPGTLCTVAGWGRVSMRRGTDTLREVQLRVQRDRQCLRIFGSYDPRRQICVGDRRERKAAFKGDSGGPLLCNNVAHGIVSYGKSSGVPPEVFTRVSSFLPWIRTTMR
Test: BLI (biolayer interferometry) binding assay of immobilized biotinylated compounds with Cathepsin G
Text: With structurally defined glycopeptides in hand, we aim to better understand the structural features needed for bikunin glycopeptide binding. Cathepsin G (CatG), a neutrophil serine protease, plays a crucial role in regulating various physiological processes, including inflammation, digestion, smooth muscle contraction, and tissue remodeling.[64] While CatG has been reported to interact with CSPG, the structural requirement of CSPG binding has not been established.[25] To measure the binding affinity towards CatG, peptides 5 and glycopeptides 10, 18–21 were biotinylated and immobilized on streptavidin coated sensors for biolayer interferometry (BLI) studies. Biotinylated 50 kDa CS and CS-A were also immobilized on the sensors for comparison. […]
General procedure of glycopeptide biotinylation
To a solution of peptide or glycopeptide in DMSO/H 2O (1/1, 0.1 ml) was added NHS-LC-Biotin (4 equiv.) and diisoproylethylamine (pH ~ 8.5). The reaction was incubated at 37 °C for 2 h. Then the mixture was dried in vacuo and purified by HPLC.
General procedure for BLI binding assay
The binding assay was performed on the Octet K2 System (Pall ForteBio). The biotinylated compounds were incubated with streptavidin (SA) sensors for 2 min. The sensor was then balanced in the assay buffer (PBS containing 0.005% P20) and dipped into Cathepsin G solution in assay buffer at 2000 nM, 1000 nM, 500 nM, 250 nM concentrations.
After 5 min of association, the sensor was brought back to the previous assay buffer for a 5 min dissociation step. At the end of the assay, the sensor was regenerated in 2 M NaCl to remove the bound protein. Each measurement was repeated 3 times on the same sensor. The control assay was performed with another sensor loaded with a 2 mM biotin solution.
Figure S3. Binding of peptide and glycopeptides a) 5, b) 10 , c) 18 , d) 19 , e) 20 , f) 21 , g) commercially available biotinylated 50 kDa CS, and h) 50 kDa CS-A to neutrophil Cathepsin G as measured by BLI ( a-h respectively). The biotinylated compounds (50 nM) were immobilized on streptavidin coated biosensors, and human neutrophil Cathepsin G was captured on biosensors with four concentrations at 2000 nM, 1000 nM, 500 nM, 250 nM.
Fitting curves were shown in red lines. […]

[1] = biotinylated compounds immobilized on streptavidin sensors, Cathepsin G at 2000, 1000, 500, 250 nM in PBS containing 0.005% P20, read-out: KD (nM) with Cathepsin G

Kd (read-out: KD (nM) with Cathepsin G, biotinylated compounds immobilized on streptavidin sensors, Cathepsin G at 2000, 1000, 500, 250 nM in PBS containing 0.005% P20) | SMILES | Kd [1]
 | CC(C)C[C@H](NC(=O)[C@H](CCC(N)=O)NC(=O)CNC(=O)CNC(=O)CNC(=O)[C@H](CO[C@@H]1OC[C@@H](O[C@@H]2O[C@H](CO)[C@H](O)[C@H](O[C@@H]3O[C@H](CO)[C@H](O)[C@H](O[C@@H]4O[C@H](C(=O)O)[C@@H](O)[C@H](O)[C@H]4O)[C@H]3O)[C@H]2O)[C@H](O)[C@H]1O)NC(=O)CNC(=O)[C@H](CCC(=O)O)NC(=O)[C@H](CCC(=O)O)NC(=O)[C@H](CCC(=O)O)NC(=O)[C@H](CCC(N)=O)NC(=O)[C@@H]1CCCN1C(=O)[C@H](CC(C)C)NC(=O)[C@@H](NC(=O)[C@H](C)N)C(C)C)C(=O)N[C@H](C(=O)N[C@H](C(=O)N[C@@H](CCC(=O)O)C(=O)N[C@H](C(=O)N[C@H](C(=O)N[C@@H](CCCCN)C(=O)N[C@@H](CCCCN)C(=O)N[C@@H](CCC(=O)O)C(=O)N[C@@H](CC(=O)O)C(=O)N[C@@H](CO)C(=O)O)[C@@H](C)O)C(C)C)[C@@H](C)O)C(C)C [Compound 10] (H-AVLPQEEEGS(X4)GGGQLVTEVTKKEDS-OH) | 650 ± 80 nM
 | CC(=O)N[C@H]1[C@H](O[C@H]2[C@H](O)[C@@H](O)[C@H](O[C@H]3[C@@H](O)[C@@H](CO)O[C@@H](O[C@H]4[C@H](O)[C@@H](O)[C@H](O[C@H]5[C@@H](O)[C@@H](CO)O[C@@H](O[C@H]6[C@H](O)[C@@H](O)[C@H](O[C@H]7[C@@H](O)[C@@H](CO)O[C@@H](O[C@H]8[C@H](O)[C@@H](O)[C@H](O[C@H]9[C@@H](O)[C@@H](CO)O[C@@H](O[C@H]%10[C@@H](O)[C@@H](CO)O[C@@H](O[C@@H]%11CO[C@@H](OC[C@H](NC(=O)CNC(=O)[C@H](CCC(=O)O)NC(=O)[C@H](CCC(=O)O)NC(=O)[C@H](CCC(=O)O)NC(=O)[C@H](CCC(N)=O)NC(=O)[C@@H]%12CCCN%12C(=O)[C@H](CC(C)C)NC(=O)[C@@H](NC(=O)[C@H](C)N)C(C)C)C(=O)NCC(=O)NCC(=O)NCC(=O)N[C@@H](CCC(N)=O)C(=O)N[C@@H](CC(C)C)C(=O)N[C@H](C(=O)N[C@H](C(=O)N[C@@H](CCC(=O)O)C(=O)N[C@H](C(=O)N[C@H](C(=O)N[C@@H](CCCCN)C(=O)N[C@@H](CCCCN)C(=O)N[C@@H](CCC(=O)O)C(=O)N[C@@H](CC(=O)O)C(=O)N[C@@H](CO)C(=O)O)[C@@H](C)O)C(C)C)[C@@H](C)O)C(C)C)[C@H](O)[C@H]%11O)[C@@H]%10O)[C@@H]9O)O[C@@H]8C(=O)O)[C@@H]7NC(C)=O)O[C@@H]6C(=O)O)[C@@H]5NC(C)=O)O[C@@H]4C(=O)O)[C@@H]3NC(C)=O)O[C@@H]2C(=O)O)O[C@H](CO)[C@H](O)[C@@H]1O[C@@H]1O[C@H](C(=O)O)[C@@H](O)[C@H](O)[C@H]1O [Compound 18] (H-AVLPQEEEG[X3]GGGQLVTEVTKKEDS-OH; N-terminus and C-terminus assumed) | 490 ± 18 nM
49 ± 5 nM | CC(=O)N[C@H]1[C@H](O[C@H]2[C@H](O)[C@@H](O)[C@H](O[C@H]3[C@@H](O)[C@@H](CO)O[C@@H](O[C@H]4[C@@H](O)[C@@H](CO)O[C@@H](O[C@@H]5CO[C@@H](OC[C@H](NC(=O)CNC(=O)[C@H](CCC(=O)O)NC(=O)[C@H](CCC(=O)O)NC(=O)[C@H](CCC(=O)O)NC(=O)[C@H](CCC(N)=O)NC(=O)[C@@H]6CCCN6C(=O)[C@H](CC(C)C)NC(=O)[C@@H](NC(=O)[C@H](C)N)C(C)C)C(=O)NCC(=O)NCC(=O)NCC(=O)N[C@@H](CCC(N)=O)C(=O)N[C@@H](CC(C)C)C(=O)N[C@H](C(=O)N[C@H](C(=O)N[C@@H](CCC(=O)O)C(=O)N[C@H](C(=O)N[C@H](C(=O)N[C@@H](CCCCN)C(=O)N[C@@H](CCCCN)C(=O)N[C@@H](CCC(=O)O)C(=O)N[C@@H](CC(=O)O)C(=O)N[C@@H](CO)C(=O)O)[C@@H](C)O)C(C)C)[C@@H](C)O)C(C)C)[C@H](O)[C@H]5O)[C@@H]4O)[C@@H]3O)O[C@@H]2C(=O)O)O[C@H](CO)[C@H](OS(=O)(=O)O)[C@@H]1O[C@@H]1O[C@H](C(=O)O)[C@@H](O[C@@H]2O[C@H](CO)[C@H](O)[C@H](O[C@@H]3O[C@H](C(=O)O)[C@@H](O)[C@H](O)[C@H]3O)[C@H]2NC(C)=O)[C@H](O)[C@H]1O [Compound 19] (H-AVLPQEEEG[X2]GGGQLVTEVTKKEDS-OH; N-terminus and C-terminus assumed) | 

Source: PMC11772155, “Solid-Phase-Supported Chemoenzymatic Synthesis and Analysis of Chondroitin Sulfate Proteoglycan Glycopeptides” (Angewandte Chemie (International ed. in English), 2024)
